Measured values: PMC11940194, “Synthesis, Antiproliferative Activity, and ADME Profiling of Novel Racemic and Optically Pure Aryl-Substituted Purines and Purine Bioisosteres” (Biomolecules, 2025)

Legend:
Assay type in all cases: cell-based, human
[1] = system: hepatocellular carcinoma (HepG2) cells; assay: Antiproliferative MTT assay, HepG2; conditions: for IC50: Homo sapiens, HepG2, 72 h, 72 h incubation, MTT, mean ± SD; for SI (HepG2): SI = [IC50 HFF]/[IC50 HepG2]
Procedure: (§1) The human ATCC tumor cell lines breast adenocarcinoma (MCF7), colorectal carcinoma (HT-29), pancreatic ductal adenocarcinoma (CFPAC-1), hepatocellular carcinoma (HepG2), and normal skin fibroblasts (HFF) derived from ATCC (American Type Culture Collection) were cultured in Dulbecco’s Modified Eagle Medium (DMEM) or Minimum Essential Medium (MEM) supplemented with 10% fetal bovine serum (FBS), 2 mM L-glutamine, 100 U/mL penicillin, and 100 µg/mL streptomycin (Lonza, Basel, Switzerland) in a humidified atmosphere with 5% CO2 at 37 °C. For the experiment, carcinoma cell lines and normal human cell lines were seeded in 96-well microtiter plates at a density of 3000 cells per well and 5000 cells per well, respectively, depending on the doubling time of the specific cell line. The test substances were then added at fivefold, tenfold dilutions (0.01 to 100 µM), freshly prepared in the growth medium on the day of testing, and incubated for a further 72 h. After 72 h of incubation, the growth rate of the cells was determined using the MTT assay according to the manufacturer’s guidelines. […] The IC50 values were calculated from the dose–response curves using linear regression analysis. The experiment was performed in tetraplicates in two individual experiments.
(§2) Newly synthesized compounds were evaluated for their cytotoxic activity in vitro against four human cancer cell lines, including human breast adenocarcinoma (MCF-7), ductal pancreatic adenocarcinoma (CFPAC-1), colorectal carcinoma (HT-29), and hepatocellular carcinoma (HepG2), as well as on non-cancerous skin fibroblasts (HFF-1), to check for non-specific toxicity. Furthermore, 5-Fluorouracil (5-FU) was used as a reference drug. The results are expressed as 50% inhibitory concentration (IC50) values and are listed in Table 2, Table 3, Table 4 and Table 5.

[2] = system: normal skin fibroblasts (HFF-1); assay: Cytotoxicity MTT assay, normal skin fibroblasts; conditions: Homo sapiens, HFF-1, 72 h, 72 h incubation, mean ± SD
Procedure: as §1, §2

[3] = system: pancreatic ductal adenocarcinoma (CFPAC-1) cells; assay: Antiproliferative MTT assay, CFPAC-1; conditions: for IC50: Homo sapiens, CFPAC-1, 72 h, 72 h incubation, MTT, mean ± SD; for SI (CFPAC-1): SI = [IC50 HFF]/[IC50 CFPAC-1]
Procedure: as §1, §2

[4] = system: colorectal carcinoma (HT-29) cells; assay: Antiproliferative MTT assay, HT-29; conditions: for IC50: Homo sapiens, HT-29, 72 h, 72 h incubation, MTT, mean ± SD; for SI (HT-29): SI = [IC50 HFF]/[IC50 HT-29]
Procedure: as §1, §2

[5] = system: breast adenocarcinoma (MCF7) cells; assay: Antiproliferative MTT assay, MCF-7; conditions: for IC50: Homo sapiens, MCF7, 72 h incubation, MTT, mean ± SD; for SI (MCF-7): SI = [IC50 HFF]/[IC50 MCF-7]
Procedure: as §1, §2

SMILES | IC50 [1] [µM] | IC50 [2] [µM] | IC50 [3] [µM] | SI (CFPAC-1) [3] | IC50 [4] [µM] | IC50 [5] [µM] | SI (MCF-7) [5] | SI (HepG2) [1] | SI (HT-29) [4]
OCC(c1ccccc1)n1cc(Cn2ccc3c(Cl)ncnc32)nn1 (centres unmarked) [Compound 41a, 4-Chloro-7-((1-(2-hydroxy-1-phenylethyl)-1H-1,2,3-triazol-4-yl)methyl)-7H-pyrrolo[2,3-d]pyrimidine] | 38 ± 1.8 | 62 ± 23.3 | 33 ± 4.5 | 1.9 | 33 ± 3.2 | 39 ± 7.1 | 1.6 |  | 
OCC(c1ccc(F)cc1)n1cc(Cn2cnc3c(Cl)ncnc32)nn1 (centres unmarked) [Compound 37a, 6-Chloro-9-((1-(2-hydroxy-1-(4-fluorophenyl)ethyl)-1H-1,2,3-triazol-4-yl)methyl)-9H-purine] | 37 ± 12.9 | 64 ± 6.3 | 50 ± 12.4 |  | 41 ± 2.3 | 38 ± 15.7 |  | 1.7 | 1.6
OC(Cn1cc(Cn2cnc3ccccc32)nn1)c1ccc(C(F)(F)F)cc1 (centres unmarked) [Compound 35b, 1-((1-(2-Hydroxy-2-(4-(trifluoromethyl)phenyl)ethyl)-1H-1,2,3-triazol-4-yl)methyl)-1H-benzimidazole] | 67 ± 3.5 | 22 ± 18.1 | 36 ± 1.3 | 0.6 | 67 ± 2.9 | 31 ± 13.7 |  |  | 
O[C@@H](Cn1cc(Cn2ccc3c(Cl)ncnc32)nn1)c1ccccc1 [Compound (R)-41b, (R)-4-Chloro-7-((1-(2-hydroxy-2-phenylethyl)-1H-1,2,3-triazol-4-yl)methyl)-7H-pyrrolo[2,3-d]pyrimidine] | 52 ± 2.7 | 23 ± 5.8 | 58 ± 12.1 | 0.4 | 46 ± 2.3 | 46 ± 2.7 | 0.5 |  | 
OCC(c1ccc(Cl)cc1)n1cc(Cn2cnc3c(Cl)nccc32)nn1 (centres unmarked) [Compound 48a, 4-Chloro-1-((1-(2-hydroxy-1-(4-chlorophenyl)ethyl)-1H-1,2,3-triazol-4-yl)methyl)-1H-imidazo[4,5-c]pyridine] | > 100 | > 100 | > 100 |  | > 100 | 96 ± 1.8 |  |  | 
OCC(c1ccc(C(F)(F)F)cc1)n1cc(Cn2cnc3ccccc32)nn1 (centres unmarked) [Compound 35a, 1-((1-(2-Hydroxy-1-(4-(trifluoromethyl)phenyl)ethyl)-1H-1,2,3-triazol-4-yl)methyl)-1H-benzimidazole] | 59 ± 4.6 | > 100 | 27 ± 0.7 | >3.7 | 61 ± 0.7 | 30 ± 0.9 |  |  | 
O[C@H](Cn1cc(Cn2cnc3c(Cl)ncnc32)nn1)c1ccccc1 [Compound (S)-36b, (S)-6-Chloro-9-((1-(2-hydroxy-2-phenylethyl)-1H-1,2,3-triazol-4-yl)methyl)-9H-purine] | 21 ± 0.8 | > 100 | 32 ± 5.3 |  | 48 ± 4.8 | 33 ± 5.8 |  | >4.8 | >2.1
OC(Cn1cc(Cn2cnc3ccccc32)nn1)c1ccc(Cl)cc1 (centres unmarked) [Compound 33b, 1-((1-(2-Hydroxy-2-(4-chlorophenyl)ethyl)-1H-1,2,3-triazol-4-yl)methyl)-1H-benzimidazole] | > 100 | 64 ± 6.17 | 69 ± 12.1 | 0.9 | > 100 | 70 ± 20.5 |  |  | 
OC(Cn1cc(Cn2ccc3ccccc32)nn1)c1ccc(F)cc1 (centres unmarked) [Compound 27b, 1-((1-(2-Hydroxy-2-(4-fluorophenyl)ethyl)-1H-1,2,3-triazol-4-yl)methyl)-1H-indole] | > 100 | > 100 | > 100 |  | > 100 | > 100 |  |  | 
OCC(c1ccc(Cl)cc1)n1cc(Cn2cnc3ccccc32)nn1 (centres unmarked) [Compound 33a, 1-((1-(2-Hydroxy-1-(4-chlorophenyl)ethyl)-1H-1,2,3-triazol-4-yl)methyl)-1H-benzimidazole] | 50 ± 12.8 | > 100 | 34 ± 2.3 | >2.9 | 63 ± 9.8 | 40 ± 1.8 |  |  | 
OC(Cn1cc(Cn2cnc3c(Cl)nccc32)nn1)c1ccc(F)cc1 (centres unmarked) [Compound 47b, 4-Chloro-1-((1-(2-hydroxy-2-(4-fluorophenyl)ethyl)-1H-1,2,3-triazol-4-yl)methyl)-1H-imidazo[4,5-c]pyridine] | 55 ± 8.8 | 18 ± 2.9 | 18 ± 0.8 |  | 65 ± 12.6 | 21 ± 2.6 |  | 0.3 | 
